Test results: US20100204155A1, “USE OF THE PEPTIDE SFLLR-OH AND MURAMYL DIPEPTIDE AS THERAPEUTIC AGENTS” (priority 2007, published 2010)
Where no end group is shown, it is not given here.

Columns and labels:
[1] = test system: HIV-1IIIB; test: HIV-1 antiviral assay in CEM-SS cells (MTS); assay type: cell-based; conditions: positive controls
[2] = test system: HCMV strain AD169; test: HCMV plaque formation assay in MRC-5 cells; conditions: for inhibition of HCMV plaque formation as compared to the virus control: 10 micrograms per ml, HCMV AD169, 7-10 days
[3] = test system: hepatitis B virus (HBV) ayw strain; test: HBV assay in HepG2-2.2.15 cells (TaqMan PCR of secreted HBV DNA); assay type: cell-based; conditions: 10 micrograms per ml, six days, HBV DNA by TaqMan PCR
Description: HepG2-2.2.15 is a stable cell line containing the hepatitis B virus (HBV) ayw strain genome (ATCC Cat. No. CRL-11997). Antiviral compounds blocking any late step of viral replication such as transcription, translation, pregenome encapsidation, reverse transcription, particle assembly and release can be identified and characterized using this cell line. In this assay, an active compound will reduce the production of secreted HBV from cells, measured by utilizing real time quantitative PCR (TaqMan) assay to directly and accurately measure HBV DNA copies.
HepG2-2.2.15 cells were plated in 96-well microtiter plates. After 16-24 hours the confluent monolayer of HepG2-2.2.15 cells was washed and the medium was replaced with complete medium containing test peptides—10 micrograms per ml—in duplicate. […] Six days following the initial administration of the peptides, the cell culture supernatants was collected, treated with pronase and DNAse and then used in a real-time quantitative TaqMan PCR assay. The PCR-amplified HBV DNA was detected in real-time by monitoring increases in fluorescence signals that result from the exonucleolytic degradation of a quenched fluorescence probe molecule that hybridizes to the amplified HBV DNA. […] Antiviral activity was calculated from the reduction in HBV DNA levels (% virus control). […]

[4] = test system: TNF-a spleen cells; test: Th1/Th2 cytokine profiling assay: TNF-a; assay type: cell-based; conditions: 10 micrograms per ml; Ovalbumin-restimulated spleen cells of immunized Balb/c mice, 72 hours
Description: (§1) The Balb/c mice (originated in 1923, it is a popular strain and is used in many different research disciplines. Also classified as an inbred from the production of 20 or more successive brother-sister matings, the Balb/c mouse is albino and small in size) were immunized on Days 1, 15, and 29 with Ovalbumin (Ovalbumin is the main protein found in egg white, commonly used to stimulate an immunological reaction in test animals) in PBS (5 micrograms/injection). On day 50, spleens of the mice were harvested (3 weeks after last boost with Ovalbumin). Cells were cultured (2×10^5/well in triplicate) and incubated with culture medium or test peptides—10 micrograms per ml—for 30 min. Thereafter, additional Ovalbumin was added to the cells at 10 micrograms/ml for in vitro restimulation of the cells. 72 hours later, cell supernatants were harvested and assayed using the Becton Dickinson Mouse Th1/Th2 Cytokine CBA Kit.

[5] = test system: IL-4 spleen cells; test: Th1/Th2 cytokine profiling assay: IL-4; assay type: cell-based; conditions: 10 micrograms per ml; Ovalbumin-restimulated spleen cells of immunized Balb/c mice, 72 hours
Description: as §1

[6] = test system: IL-2 spleen cells; test: Th1/Th2 cytokine profiling assay: IL-2; assay type: cell-based; conditions: 10 micrograms per ml; Ovalbumin-restimulated spleen cells of immunized Balb/c mice, 72 hours
Description: as §1

[7] = test system: HUVEC; test: Endothelial tube formation assay; assay type: cell-based, human; conditions: 10 micrograms per ml, 20 hours, combination peptide 1:peptide 2 0.95 mole:1.05 mole
Description: Positive control was vehicle only.

[8] = test system: IFNγ spleen cells; test: Th1/Th2 cytokine profiling assay: IFNγ; assay type: cell-based; conditions: 10 micrograms per ml; Ovalbumin-restimulated spleen cells of immunized Balb/c mice, 72 hours
Description: as §1

[9] = test system: Primary Human endothelial cells (HUVEC); test: Endothelial cell migration assay; assay type: cell-based; conditions: 10 micrograms per ml, 22 hours, combination peptide 1:peptide 2 0.95 mole:1.05 mole
Procedure: Thereafter, designated concentration of testing peptides—10 micrograms per ml—was added in duplicate wells.

[10] = test system: IL-5 spleen cells; test: Th1/Th2 cytokine profiling assay: IL-5; assay type: cell-based; conditions: 10 micrograms per ml; Ovalbumin-restimulated spleen cells of immunized Balb/c mice, 72 hours
Description: as §1

Molecule: Cc1cn([C@H]2C[C@H](N=[N+]=[N-])[C@@H](CO)O2)c(=O)[nH]c1=O [AZT]
- antiviral activity of positive control compounds (HIV-1 assay) [1]: expected levels of antiviral activity

Molecule: Nc1nc(O)c2ncn(COC(CO)CO)c2n1 [Ganciclovir, reference compound]
- antiviral activity of positive control compound (HCMV assay) ([2]; positive control, HCMV AD169): expected levels of antiviral activity

Molecule: CC(C)(C)NC(=O)[C@@H]1CN(Cc2cccnc2)CCN1C[C@@H](O)C[C@@H](Cc1ccccc1)C(=O)N[C@H]1c2ccccc2C[C@H]1O [indinavir]
- antiviral activity of positive control compounds (HIV-1 assay) [1]: expected levels of antiviral activity

Molecule: Ac-muramyl-Ala-D-Glu-NH2 [Peptide 2]
- inhibition of HBV replication as compared to the virus control infection [3]: 54.4%
- TNF-a spleen cells; TH1 response (% of control) [4]: 134.0 % of control
- IL-4 spleen cells; TH2 response (% of control) [5]: 94.5 % of control
- IL-2 spleen cells (% of control) [6]: 0.0 % of control
- inhibition of the tube formation of endothelial cells [7]: 27%
- IFNγ spleen cells; TH1 response (% of control) [8]: 146.7 % of control
- inhibition of HCMV plaque formation as compared to the virus control [2]: did not inhibit
- inhibition of the migration of human endothelial cells [9]: did not inhibit
- IL-5 spleen cells; TH2 response (% of control) [10]: 71.3 % of control

Molecule: Ser-Phe-Leu-Leu-Arg-OH (SFLLR-OH) [Peptide 1]
- inhibition of HBV replication as compared to the virus control infection [3]: 39.6%
- TNF-a spleen cells; TH1 response (% of control) [4]: 121.8 % of control
- IL-4 spleen cells; TH2 response (% of control) [5]: 0.0 % of control
- IL-2 spleen cells (% of control) [6]: 55.7 % of control
- inhibition of the tube formation of endothelial cells [7]: 12%
- IFNγ spleen cells; TH1 response (% of control) [8]: 129.1 % of control
- inhibition of HCMV plaque formation as compared to the virus control [2]: did not inhibit
- inhibition of the migration of human endothelial cells [9]: 29%
- IL-5 spleen cells; TH2 response (% of control) [10]: 55.9 % of control
